{
  "source": "ChEMBL document CHEMBL5113527",
  "about": "“First-in-Class Hydrazide-Based HDAC6 Selective Inhibitor with Potent Oral Anti-Inflammatory Activity by Attenuating NLRP3 Inflammasome Activation” (J Med Chem, 2022)",
  "key": {"J774.A1": {"system": "J774.A1", "assay": "Inhibition of HDAC6/dynein interaction in mouse J774.A1 cells measured after 8 hrs by co-immunoprecipitation based Western blotting analysis", "assay_type": "cell-based"}, "Histone deacetylase 9": {"molecular_target": "Histone deacetylase 9 (Homo sapiens, UniProt Q9UKV0)", "sequence (Q9UKV0 whole entry)": "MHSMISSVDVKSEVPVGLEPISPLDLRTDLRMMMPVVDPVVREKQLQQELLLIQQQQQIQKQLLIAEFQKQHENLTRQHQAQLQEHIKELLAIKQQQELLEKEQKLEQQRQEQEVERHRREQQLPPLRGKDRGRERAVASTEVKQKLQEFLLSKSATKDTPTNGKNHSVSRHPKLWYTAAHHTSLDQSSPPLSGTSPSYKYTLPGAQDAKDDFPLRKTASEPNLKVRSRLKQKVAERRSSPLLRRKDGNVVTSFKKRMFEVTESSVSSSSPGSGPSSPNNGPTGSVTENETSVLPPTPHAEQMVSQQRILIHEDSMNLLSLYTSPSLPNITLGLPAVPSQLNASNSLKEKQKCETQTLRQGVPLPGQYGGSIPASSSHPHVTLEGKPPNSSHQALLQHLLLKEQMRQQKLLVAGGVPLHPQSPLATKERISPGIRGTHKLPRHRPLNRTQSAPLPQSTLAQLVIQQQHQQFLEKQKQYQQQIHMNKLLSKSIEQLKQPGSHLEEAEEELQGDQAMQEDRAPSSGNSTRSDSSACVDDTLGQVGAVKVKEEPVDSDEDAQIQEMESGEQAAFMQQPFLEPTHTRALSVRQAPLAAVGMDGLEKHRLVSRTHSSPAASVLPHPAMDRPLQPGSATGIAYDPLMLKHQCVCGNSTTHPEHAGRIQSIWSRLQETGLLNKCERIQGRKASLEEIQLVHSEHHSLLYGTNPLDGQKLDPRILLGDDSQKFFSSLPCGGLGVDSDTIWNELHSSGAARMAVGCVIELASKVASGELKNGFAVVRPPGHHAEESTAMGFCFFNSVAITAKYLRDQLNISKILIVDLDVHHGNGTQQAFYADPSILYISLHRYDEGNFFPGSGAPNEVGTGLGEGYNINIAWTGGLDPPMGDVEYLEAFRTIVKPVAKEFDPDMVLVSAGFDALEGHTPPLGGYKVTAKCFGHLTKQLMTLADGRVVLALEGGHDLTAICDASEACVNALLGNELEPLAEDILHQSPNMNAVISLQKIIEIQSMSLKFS", "assay": "Inhibition of recombinant HDAC9 (unknown origin) using Boc-Lys (trifluoroacetyl) AMC as substrate preincubated for 1 hr followed by substrate addition and measured after 2 hrs by fluorescence based microplate reader analysis"}, "[1]": {"molecular_target": "T1, Protein deacetylase HDAC6 (Homo sapiens, UniProt Q9UBN7)", "T1 sequence (Q9UBN7 whole entry)": "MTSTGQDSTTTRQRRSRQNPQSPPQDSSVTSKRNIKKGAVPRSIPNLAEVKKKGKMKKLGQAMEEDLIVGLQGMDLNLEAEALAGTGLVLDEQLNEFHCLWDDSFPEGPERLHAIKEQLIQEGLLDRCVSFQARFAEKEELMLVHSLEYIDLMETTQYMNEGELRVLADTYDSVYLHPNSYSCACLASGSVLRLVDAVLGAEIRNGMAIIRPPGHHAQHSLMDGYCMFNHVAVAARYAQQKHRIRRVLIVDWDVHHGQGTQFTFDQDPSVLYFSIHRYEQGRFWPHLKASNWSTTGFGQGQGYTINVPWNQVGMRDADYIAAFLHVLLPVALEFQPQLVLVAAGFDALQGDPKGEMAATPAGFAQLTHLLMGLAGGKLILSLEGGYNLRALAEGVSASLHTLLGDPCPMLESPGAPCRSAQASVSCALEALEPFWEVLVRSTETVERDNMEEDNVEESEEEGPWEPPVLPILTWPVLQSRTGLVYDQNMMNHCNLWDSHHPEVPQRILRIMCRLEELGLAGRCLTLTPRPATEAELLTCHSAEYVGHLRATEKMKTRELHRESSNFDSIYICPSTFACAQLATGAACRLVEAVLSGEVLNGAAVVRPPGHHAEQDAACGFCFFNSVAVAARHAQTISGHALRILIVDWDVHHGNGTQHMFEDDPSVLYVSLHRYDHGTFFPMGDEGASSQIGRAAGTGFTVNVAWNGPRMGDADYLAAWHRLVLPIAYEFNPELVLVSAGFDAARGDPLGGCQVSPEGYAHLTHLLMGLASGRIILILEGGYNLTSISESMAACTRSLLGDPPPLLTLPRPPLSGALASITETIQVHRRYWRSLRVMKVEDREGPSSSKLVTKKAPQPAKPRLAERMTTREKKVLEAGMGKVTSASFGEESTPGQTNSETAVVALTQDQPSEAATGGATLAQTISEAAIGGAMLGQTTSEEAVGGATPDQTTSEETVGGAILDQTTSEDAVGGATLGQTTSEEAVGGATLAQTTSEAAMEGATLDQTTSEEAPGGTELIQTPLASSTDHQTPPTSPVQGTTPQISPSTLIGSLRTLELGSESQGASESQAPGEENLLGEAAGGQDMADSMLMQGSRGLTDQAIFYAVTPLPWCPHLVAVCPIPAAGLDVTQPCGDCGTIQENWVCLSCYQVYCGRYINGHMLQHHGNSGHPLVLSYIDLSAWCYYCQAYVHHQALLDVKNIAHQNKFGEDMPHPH", "assay": "Inhibition of recombinant HDAC6 (unknown origin) using Boc-Lys(acetyl)-AMC as substrate preincubated for 120 mins followed by substrate addition and measured after 2 hrs by fluorescence based microplate reader analysis"}, "[2]": {"assay": "Brain concentration in CD-1 mouse at 20 mg/kg measured after 1 hrs by LC-MS/MS analysis", "assay_type": "ADME, organism-based", "conditions": "read-out: Ct"}, "[3]": {"assay": "Ratio of drug concentration in brain to plasma of CD-1 mouse measured after 0.5 hrs by LC-MS/MS analysis", "assay_type": "ADME", "conditions": "read-out: BPR"}, "[4]": {"assay": "Half life in CD-1 mouse at 5 mg/kg, iv measured after 0.083 to 24 hrs by LC-MS/MS analysis", "assay_type": "ADME, organism-based", "conditions": "in vivo, time 0.083-24 hrs"}, "[5]": {"assay": "Plasma concentration in CD-1 mouse at 20 mg/kg measured after 0.5 hrs by LC-MS/MS analysis", "assay_type": "ADME, organism-based"}, "Histone deacetylase 3": {"molecular_target": "Histone deacetylase 3 (Homo sapiens, UniProt O15379)", "sequence (O15379 whole entry)": "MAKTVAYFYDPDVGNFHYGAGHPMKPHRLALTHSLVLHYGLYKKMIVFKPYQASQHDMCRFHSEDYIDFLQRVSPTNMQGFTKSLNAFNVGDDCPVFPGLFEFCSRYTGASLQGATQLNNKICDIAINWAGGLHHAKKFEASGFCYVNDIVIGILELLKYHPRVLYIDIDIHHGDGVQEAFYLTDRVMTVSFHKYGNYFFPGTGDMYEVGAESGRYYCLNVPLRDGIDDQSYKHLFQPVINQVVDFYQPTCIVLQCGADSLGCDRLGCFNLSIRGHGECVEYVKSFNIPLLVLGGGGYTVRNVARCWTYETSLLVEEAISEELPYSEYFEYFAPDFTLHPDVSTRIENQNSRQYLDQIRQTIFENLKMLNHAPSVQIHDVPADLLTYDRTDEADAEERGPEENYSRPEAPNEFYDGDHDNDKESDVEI", "assay": "Binding affinity to recombinant HDAC3 (unknown origin) assessed as inhibition constant using Boc-Lys(acetyl)-AMC as substrate preincubated for 1 hr followed by substrate addition and measured after 2 hrs by fluorescence based microplate reader analysis"}, "Histone deacetylase 2": {"molecular_target": "Histone deacetylase 2 (Homo sapiens, UniProt Q92769)", "sequence (Q92769 whole entry)": "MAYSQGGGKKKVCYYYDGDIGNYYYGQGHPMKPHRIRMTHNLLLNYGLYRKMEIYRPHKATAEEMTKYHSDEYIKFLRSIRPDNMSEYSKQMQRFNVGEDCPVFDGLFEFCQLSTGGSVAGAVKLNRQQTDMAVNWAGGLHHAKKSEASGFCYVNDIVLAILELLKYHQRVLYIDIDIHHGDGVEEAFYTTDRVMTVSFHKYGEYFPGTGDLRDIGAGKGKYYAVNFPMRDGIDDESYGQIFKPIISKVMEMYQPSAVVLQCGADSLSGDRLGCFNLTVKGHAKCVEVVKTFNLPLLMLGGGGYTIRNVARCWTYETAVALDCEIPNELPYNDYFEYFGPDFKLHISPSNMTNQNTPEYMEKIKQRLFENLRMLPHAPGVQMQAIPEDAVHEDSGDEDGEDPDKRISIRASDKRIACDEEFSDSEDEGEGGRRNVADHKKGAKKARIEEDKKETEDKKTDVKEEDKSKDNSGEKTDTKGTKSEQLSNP", "assay": "Inhibition of recombinant HDAC2 (unknown origin) using Boc-Lys(acetyl)-AMC as substrate preincubated for 1 hr followed by substrate addition and measured after 2 hrs by fluorescence based microplate reader analysis"}, "[6]": {"assay": "Acute toxicity in LPS-induced endotoxic shock C57BL/6 mouse model assessed as effect on body weight at 500 mg/kg, po administered as single dose for 15 days", "assay_type": "organism-based", "conditions": "in vivo, 360 h, time 15 day"}, "[7]": {"assay": "Brain concentration in CD-1 mouse at 20 mg/kg measured after 2 hrs by LC-MS/MS analysis", "assay_type": "ADME, organism-based", "conditions": "read-out: Ct"}, "[8]": {"assay": "Brain concentration in CD-1 mouse at 20 mg/kg measured after 4 hrs by LC-MS/MS analysis", "assay_type": "ADME, organism-based", "conditions": "read-out: Ct"}, "[9]": {"assay": "Oral bioavailability in CD-1 mouse at 20 mg/kg measured after 0.083 to 24 hrs by LC-MS/MS analysis", "assay_type": "ADME, organism-based", "conditions": "in vivo, time 0.083-24 hrs"}, "[10]": {"molecular_target": "T1, Protein deacetylase HDAC6", "assay": "Inhibition of recombinant HDAC6 (unknown origin) using Boc-Lys(acetyl)-AMC as substrate preincubated for 1 hr followed by substrate addition and measured after 2 hrs by fluorescence based microplate reader analysis"}, "Histone deacetylase 8": {"molecular_target": "T2, Histone deacetylase 8 (Homo sapiens, UniProt Q9BY41)", "T2 sequence (Q9BY41 whole entry)": "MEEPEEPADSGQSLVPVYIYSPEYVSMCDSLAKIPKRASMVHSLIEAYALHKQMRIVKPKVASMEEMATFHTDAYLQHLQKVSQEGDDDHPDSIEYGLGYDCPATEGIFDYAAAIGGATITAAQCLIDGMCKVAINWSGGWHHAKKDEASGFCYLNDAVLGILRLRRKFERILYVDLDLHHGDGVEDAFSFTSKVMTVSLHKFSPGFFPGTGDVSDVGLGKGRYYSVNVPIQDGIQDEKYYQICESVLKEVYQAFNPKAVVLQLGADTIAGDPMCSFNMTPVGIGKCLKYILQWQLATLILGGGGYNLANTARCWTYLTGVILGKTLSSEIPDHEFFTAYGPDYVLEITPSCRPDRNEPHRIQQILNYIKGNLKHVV", "assay": "Inhibition of recombinant HDAC8 (unknown origin) using Boc-Lys (trifluoroacetyl) AMC as substrate preincubated for 1 hr followed by substrate addition and measured after 2 hrs by fluorescence based microplate reader analysis"}, "[11]": {"molecular_target": "T3, Protein deacetylase HDAC6 (Homo sapiens) (UniProt Q9UBN7)", "T3 sequence (whole entry)": "T1 sequence (Q9UBN7 whole entry)", "assay": "Inhibition of full length recombinant human HDAC6 in MV4-11 cells assessed as accumulation of acetylated alpha-tubulin at 0.1 to 1 uM measured upto 24 hrs by western blot analysis", "assay_type": "cell-based", "conditions": "dose 0.1-1 µM, DDE = dose-dependent effect"}, "Mus musculus": {"system": "Mus musculus", "assay": "Inhibition of LPS-induced endotoxic shock in C57BL/6 mouse model serum assessed as decrease in IL-1beta level at 20 mg/kg, ip measured after 12 hrs", "assay_type": "functional, organism-based"}, "[12]": {"assay": "Plasma concentration in CD-1 mouse at 20 mg/kg measured after 4 hrs by LC-MS/MS analysis", "assay_type": "ADME, organism-based"}},
  "note": "Activity calls are given as the source filed them. The calls are words filed in the database; no cut-off is given here.",
  "data": [
    {"smiles": "CCNNC(=O)c1ccc(CN2c3ccccc3C=Cc3ccncc32)cc1", "values": [
      {"measurement": "inhibition", "setting": "J774.A1", "result": "Active"},
      {"measurement": "IC50", "setting": "Histone deacetylase 9", "result": "> 5000", "unit": "nM"},
      {"measurement": "IC50", "setting": "[1]", "result": 51, "unit": "nM"},
      {"measurement": "concentration at 1 h", "setting": "[2]", "result": 7400, "unit": "ng/mL"},
      {"measurement": "Kp at 0.5 h", "setting": "[3]", "result": 1.45},
      {"measurement": "half-life", "setting": "[4]", "result": 7.95, "unit": "h"},
      {"measurement": "concentration at 0.5 h", "setting": "[5]", "result": 7740, "unit": "ng/mL"},
      {"measurement": "Ki", "setting": "Histone deacetylase 3", "result": 430, "unit": "nM"},
      {"measurement": "IC50", "setting": "Histone deacetylase 2", "result": 2060, "unit": "nM"},
      {"measurement": "Activity", "setting": "[6]", "result": "Non-Toxic"},
      {"measurement": "concentration at 2 h", "setting": "[7]", "result": 3280, "unit": "ng/mL"},
      {"measurement": "concentration at 4 h", "setting": "[8]", "result": 245, "unit": "ng/mL"},
      {"measurement": "bioavailability", "setting": "[9]", "result": 93.4, "unit": "%"},
      {"measurement": "IC50", "setting": "[10]", "result": 19, "unit": "nM"},
      {"measurement": "IC50", "setting": "Histone deacetylase 8", "result": "> 5000", "unit": "nM"},
      {"measurement": "inhibition", "setting": "[11]", "result": "Dde"},
      {"measurement": "Activity", "setting": "Mus musculus", "result": "Active"},
      {"measurement": "concentration at 4 h", "setting": "[12]", "result": 162, "unit": "ng/mL"}
    ]}
  ]
}
